A short description of series [1]: Additive decomposition of peak excitation and emission wavelengths (model coefficients of A and B groups). The note with it: for αi^em: influence of A group on peak emission wavelength; for αi^em / αi^ex: A group 1 as baseline; for αi^ex: influence of A group on peak excitation wavelength. An excerpt: The chemical structure of the styryl library is illustrated in FIG. 3. […] Initial analysis focused on measurements of peak emission and excitation wavelength obtained for all styryl products showing a single, localized peak (there were 256 such compounds for emission wavelength, and 193 compounds for excitation wavelength). […] The wavelength for the styryl compound formed by joining A group i with B group j is denoted as λij (or more specifically, λij^ex for excitation wavelength and λij^em for emission wavelength). The additive model λij=ai+βj+εij was fit to the data using least squares yielding parameters αi^ex, αi^em, βj^ex, and βj^em that quantify the influence of each A and B group on the spectrum of the styryl product. […] (FIGS. 8A-8B). […] The predictions were made ignoring interactions between the two functional moieties in the styryl compound. The predicted values were obtained without bias, by holding out the data point to be predicted when training the model.
In preferred embodiments, using the cross-validation approach disclosed herein, each compound was held out in sequence, the model was trained using the remaining compounds, then the wavelength value for the held-out compound was predicted based on the resulting fitted model. This process produced correlations between measured and predicted values of ρ^em=0.78 (emission) and ρ^ex=0.69 (excitation).
Based on this analysis, the contribution of the A and B functional groups to the fluorescence of the styryl product is quantified using the fitted coefficients αi^ex, βj^ex, […], and βj^em. Since these coefficients are on a scale without origin, in some embodiments, the invention uses the first A group and B group as a baseline, so […], β1^ex=0, and so on. Table 3 contains the model coefficients of all A and B groups for peak excitation and emission wavelength.
Greater values of αi^ex, αi^em, βj^ex, and βj^em indicate greater peak wavelength. Greater values of αi^mito and […] indicate stronger mitochondrial localization. A groups 40 and 41 were not screened for localization. A groups 2, 29, and 33 only formed fluorescent products with a single B group, so were not included in the spectral analysis.
In some embodiments, the wavelength values for peak excitation and emission were fit to the additive model λij=αi+βj+εij, where εij denotes error that is made as small as possible in the fitting process. Using least squares to minimize the function [formula] over all compounds having experimental data yields coefficient estimates αi for each A group and βj for each B group. One set of coefficient estimates is obtained for the excitation values and another set is obtained for the emission values. To predict the wavelength of a new compound formed from A and B groups i* and j* the sum αi*+βj* is used.
In some embodiments, for both the spectral and localization analysis, cross-validation was used to obtain unbiased estimates of the prediction performance. Each compound was held out in sequence, and the coefficients αi and βj were fit to the remaining compounds. These values were then used to form a prediction for the held out compound, then the predicted and experimental values were compared to obtain a measure of the accuracy of prediction. Since the wavelength values are on a continuous scale, the predicted values were compared to the experimental values using Pearson correlation coefficients. The localization values are dichotomous, so the proportion of matching predictions was used to compare predicted and experimental localization values.

Another series deals with mitochondria. Nature of the series: QSLR factorial logistic regression of mitochondrial localization (affinity coefficients, cross-validated prediction). Further details: species or system human. The settings on record: for αi^mito: influence of A group on mitochondrial localization, greater = stronger; for estimated A group affinity coefficient ai: ±5 for groups always or never mitochondrial. An excerpt:
The first column and first row contain the A group and B group labels. The second column and second row contain the estimated A group and B group affinity coefficients (ai and bj respectively). The interior of the table contains the value sij=ai+bj for each compound (where positive values of sij indicate predicted localization to mitochondria, and negative values of sij indicate predicted localization to a non-mitochondrial compartment). The subscript m indicates experimentally determined mitochondrial localization. The subscript o indicates experimentally determined non-mitochondrial localization. The darkened boxes indicate correctly predicted mitochondrial localizations under cross-validation.
Based on this matrix, factorial logistic regression (See, A. Agresti, Categorical Data Analysis, Wiley [2002]) was used to calculate mitochondrial affinity coefficients (ai and bj) for each A and B moiety. (Table 1). Since it is not necessary to observe all possible pairings between A and B building blocks to estimate the affinity coefficients, the QSLR approach can predict localization of unmeasured styryl molecules based on a minimal set of experimentally-determined localizations (see Methods). The methods of the present invention allow assessment of predictivity using the cross-validation technique by holding out one compound and fitting the affinity coefficients using the remaining compounds, predictivity can be assessed by comparing the actual localization of the held-out compound to its predicted localization. Repeating this for every measured compound in the library yields an error rate for the procedure.
Briefly, this technique assigns quantitative scores to each A group (αi^mito) and to each B group (βj^mito), in such a way that αi^mito+βj^mito is positive for compounds with mitochondrial localization, and is negative for compounds lacking mitochondrial localization. […] In additional embodiments, same analysis can be applied to organelles other than mitochondria, provided there are a sufficient number of localizations to specific non-mitochondrial organelles in the combinatorial library of interest for reliable statistical calculations.
In certain embodiments, the predictive performance of the above method was assessed using a cross-validation approach by calculating the proportion of all compounds that are correctly predicted. For cross-validation, each styryl product was set aside in sequence, and the factorial logistic model was fit to the remaining data. Then the resulting A and B scores for the held-out compound were summed. If the sum was positive, the held-out compound was predicted to be mitochondrial, while if the sum was negative, the held-out compound was predicted to be non-mitochondrial. […] The baseline performance of the method scored 104 correct out of 145, or 72%. This number is highly statistically significant compared to random guessing (p-value ˜10^−7). Thus, across the entire library, A and B moieties appear to contribute to localization in an independent, additive fashion.
In some embodiments, subcellular localization data were converted to binary (0/1) values by assigning a value Gij=1 if compound i,j localized to mitochondria (even if it localized to other […] as well), and assigning Gij=0 if compound i,j localized exclusively to any non-mitochondrial cellular structure. Compounds with no localization were omitted from this part of the analysis. The αi and βj coefficients for A or B groups that are always observed to localize to mitochondria, or that never localize to mitochondria, were set to +/−5, respectively. The binary localization data were analyzed using factorial logistic regression. […]

For another series, the system named is HeLa cells. The series can be described thus: Kinetic imaging of NBD-triazine probe uptake and sequestration, fitted to nested two-compartment transport model. The note with it: median over optimal solutions within 5% of the best fit. The class given is cell-based. A digest of the protocol:
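HeLa cells (3000/well, plated 24 h earlier) imaged live with 10 μM NBD probe in RPMI containing 1.0 mM bromophenol blue, about 2 h for influx, then washed and imaged 6 h for efflux, every ~7 min. Perinuclear pixel-intensity CV fitted to a nested two-compartment transport model by simulated annealing.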

Regarding `O=Cc1ccc2ccc3cccc4ccc1c2c34` [A group 41], in series [1], the “αi^em” value is on record as 46.9 nm and the “αi^ex” value is 26.1 nm.
For `Cc1ccnc(-c2cc(C)cc[n+]2C)c1.[I-]` [B group 10], the “βj^em” value in series [1] (influence of B group on peak emission wavelength, B group 1 as baseline) was found to be 19.8 nm. Also, the “βj^ex” value in series [1] (influence of B group on peak excitation wavelength, B group 1 as baseline) stood at 1.6 nm. The “βj^mito” value in the series on mitochondria (influence of B group on mitochondrial localization) is 0.8. Also, in the series on mitochondria (mitochondrial affinity), the “estimated B group affinity coefficient bj” value is 0.8.
As for `O=Cc1cccc2ccccc12` [A group 32], in series [1], the “αi^em” value is −15.0 nm and the “αi^ex” value is recorded as −36.1 nm. Further, the “αi^mito” value in the series with mitochondria is listed as 5.0. For the same molecule, the “estimated A group affinity coefficient ai” value with mitochondria (mitochondrial affinity) is on record as 5.0.
Regarding `COc1cc(OC)c(OC)cc1C=O` [A group 38], in series [1], the “αi^em” value worked out at 22.2 nm and the “αi^ex” value is −15.6 nm. Besides, the “αi^mito” value in the series with mitochondria is on record as −1.3. The “estimated A group affinity coefficient ai” value with mitochondria (mitochondrial affinity) is listed as −1.3.
Take `CCCCNc1nc(NCCCCCCNc2ccc([N+](=O)[O-])c3nonc23)nc(NCCc2ccc(OC)cc2)n1` [Compound D1]: in the series with HeLa cells, the “median Pap(cyto) (apparent partition coefficient between extracellular medium and cytosol)” value (from here on “median Pap(cyto)”) is listed as 12.15; the “median Pap(ves) (apparent partition coefficient between cytosol and intracellular vesicles, k(ves)in/k(ves)out)” value (shortened to “median Pap(ves)”) is on record as 15.51.
On the same counts, the results for `CC(C)Nc1nc(NCCCCCCNc2ccc([N+](=O)[O-])c3nonc23)nc(NCCC(c2ccccc2)c2ccccc2)n1` [Compound F2] are 79.42 and 0.34.
For `COc1ccc(CCNc2nc(NCCCCCCNc3ccc([N+](=O)[O-])c4nonc34)nc(NC(C)C)n2)cc1` [Compound D2], in the series with HeLa cells, the “median Pap(cyto)” value is given as 149.28; the “median Pap(ves)” value is given as 1.53.
Consider `COc1cccc(CNc2nc(NCCCCCCNc3ccc([N+](=O)[O-])c4nonc34)nc(NC3CCCCC3C)n2)c1OC` (stereo not drawn) [Compound H5], for which, in the series on HeLa cells, the “median Pap(cyto)” value is reported as 5.12; the “median Pap(ves)” value stood at 16.80.
For the molecule `O=Cc1ccccn1` [A group 40], in series [1], the “αi^em” value is listed as 64.8 nm and the “αi^ex” value was −18.1 nm.
As to `COc1ccc(CNc2nc(NCCCCCCNc3ccc([N+](=O)[O-])c4nonc34)nc(NCC3CCCCC3)n2)cc1` [Compound C6], in the series on HeLa cells, the “median Pap(cyto)” value was 19.15; the “median Pap(ves)” value is reported as 11.94.
On to `CCCCNc1nc(NCCCCCCNc2ccc([N+](=O)[O-])c3nonc23)nc(NCc2ccccc2)n1` [Compound A1], for which, in the series on HeLa cells, the “median Pap(cyto)” value is 185.83; the “median Pap(ves)” value was 0.52.
On to `CC(C)CCNc1nc(NCCCCCCNc2ccc([N+](=O)[O-])c3nonc23)nc(NCCC(c2ccccc2)c2ccccc2)n1` [Compound F8], for which, in the series on HeLa cells, the “median Pap(cyto)” value is 65.86; the “median Pap(ves)” value was determined as 10.07.
For `COc1ccc(CCNc2nc(NCCCCCCNc3ccc([N+](=O)[O-])c4nonc34)nc(NCCc3ccccc3)n2)cc1` [Compound D10] the same measures were 9.41 and 13.79.
`COc1ccc(CCNc2nc(NCCCCCCNc3ccc([N+](=O)[O-])c4nonc34)nc(NC3CCCCC3)n2)cc1` [Compound D7]: in the series on HeLa cells, the “median Pap(cyto)” value worked out at 8.37; the “median Pap(ves)” value is 28.56.
For `O=Cc1ccccc1` [A group 2], the “αi^mito” value in the series on mitochondria is listed as 5.0. The “estimated A group affinity coefficient ai” value in the series with mitochondria (mitochondrial affinity) is 5.0.
On to `COc1ccc(CCNc2nc(NCCCCCCNc3ccc([N+](=O)[O-])c4nonc34)nc(NC3CCC(C)CC3)n2)cc1` (stereo not drawn) [Compound D4], for which, in the series on HeLa cells, the “median Pap(cyto)” value is on record as 99.03; the “median Pap(ves)” value came out at 0.22.
Turning to `COc1ccc(CNc2nc(NCCCCCCNc3ccc([N+](=O)[O-])c4nonc34)nc(NC3CCCCC3)n2)cc1` [Compound C7], in the series with HeLa cells, the “median Pap(cyto)” value is on record as 12.58; the “median Pap(ves)” value is on record as 12.01.
As for `COc1cccc(CNc2nc(NCCCCCCNc3ccc([N+](=O)[O-])c4nonc34)nc(NC(C)C)n2)c1OC` [Compound H2], in the series with HeLa cells, the “median Pap(cyto)” value is reported as 10.30; the “median Pap(ves)” value stood at 9.91.
Regarding `CCCCCCCCNc1nc(NCCCCCCNc2ccc([N+](=O)[O-])c3nonc23)nc(NCCC(c2ccccc2)c2ccccc2)n1` [Compound F3], in the series on HeLa cells, the “median Pap(cyto)” value is listed as 21.91; the “median Pap(ves)” value is given as 9.79.
As to `CC1CCC(Nc2nc(NCCCCCCNc3ccc([N+](=O)[O-])c4nonc34)nc(NCCC(c3ccccc3)c3ccccc3)n2)CC1` (stereo not drawn) [Compound F4], in the series on HeLa cells, the “median Pap(cyto)” value is recorded as 1.89; the “median Pap(ves)” value amounted to 43.56.
For `O=[N+]([O-])c1ccc(NCCCCCCNc2nc(NCc3cccc(F)c3)nc(NC3CCCCC3)n2)c2nonc12` [Compound E7], in the series with HeLa cells, the “median Pap(cyto)” value was found to be 8.70; the “median Pap(ves)” value is 16.57.

Values taken from patent US20070111251A1, “Chemical address tags” (priority 2003, published 2007).
